According to PubChem BioAssay AID2060897 (Molecular Pharmacology Branch, DTP, NCI, 2025):
“And” between values parts separate entries of the source, which are not always exact repeats. Equal entries are not always repeated. One block for each molecule: values may come before it.

Test system: 966289-007-R4-J1-PDC complex spheroid viability
Assay: Anticancer human tumor 966289-007-R4-J1-PDC patient-derived pancreatic adenocarcinoma cell line growth inhibition [RAS]
Details: for viability, T/C: stronger effect = lower value
Method in brief: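 Tumour cells grown as complex spheroids with HUVEC endothelial cells and mesenchymal stem cells, treated with RAS pathway inhibitor combinations. Each agent spans half-log steps from near clinical Cmax, or 10 microM where Cmax is unknown.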

[1] = curve of first compound, second compound 0.000949 µM
[2] = curve of first compound, second compound 0.003 µM
[3] = curve of first compound, second compound 0.00949 µM
[4] = curve of first compound, second compound 0.03 µM
[5] = curve of first compound, second compound 0.0949 µM
[6] = curve of first compound, second compound 0.3 µM
[7] = second compound 0.000949 µM, first compound 0.0316 µM
[8] = second compound 0.000949 µM, first compound 0.1 µM
[9] = second compound 0.000949 µM, first compound 0.316 µM
[10] = second compound 0.000949 µM, first compound 1 µM
[11] = second compound 0.000949 µM, first compound 3.16 µM
[12] = second compound 0.000949 µM, first compound 10 µM
[13] = second compound 0.003 µM, first compound 0.0316 µM
[14] = second compound 0.003 µM, first compound 0.1 µM
[15] = second compound 0.003 µM, first compound 0.316 µM
[16] = second compound 0.003 µM, first compound 1 µM
[17] = second compound 0.003 µM, first compound 3.16 µM
[18] = second compound 0.003 µM, first compound 10 µM
[19] = second compound 0.00949 µM, first compound 0.0316 µM
[20] = second compound 0.00949 µM, first compound 0.1 µM
[21] = second compound 0.00949 µM, first compound 0.316 µM
[22] = second compound 0.00949 µM, first compound 1 µM
[23] = second compound 0.00949 µM, first compound 3.16 µM
[24] = second compound 0.00949 µM, first compound 10 µM
[25] = second compound 0.03 µM, first compound 0.0316 µM
[26] = second compound 0.03 µM, first compound 0.1 µM
[27] = second compound 0.03 µM, first compound 0.316 µM
[28] = second compound 0.03 µM, first compound 1 µM
[29] = second compound 0.03 µM, first compound 3.16 µM
[30] = second compound 0.03 µM, first compound 10 µM
[31] = second compound 0.0949 µM, first compound 0.0316 µM
[32] = second compound 0.0949 µM, first compound 0.1 µM
[33] = second compound 0.0949 µM, first compound 0.316 µM
[34] = second compound 0.0949 µM, first compound 1 µM
[35] = second compound 0.0949 µM, first compound 3.16 µM
[36] = second compound 0.0949 µM, first compound 10 µM
[37] = second compound 0.3 µM, first compound 0.0316 µM
[38] = second compound 0.3 µM, first compound 0.1 µM
[39] = second compound 0.3 µM, first compound 0.316 µM
[40] = second compound 0.3 µM, first compound 1 µM
[41] = second compound 0.3 µM, first compound 3.16 µM
[42] = second compound 0.3 µM, first compound 10 µM
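Also: spheroids exposed to agents for one week before readout.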
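For viability, T/C in this document: percent viability relative to DMSO vehicle control wells as 100%.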

IC50 (curve of first compound, second compound 0.0316 µM): > 10 µM | IC50 (curve of first compound, second compound 0.1 µM): > 10 µM | IC50 (curve of first compound, second compound 0.316 µM): > 10 µM | IC50 (curve of first compound, second compound 1 µM): > 10 µM | IC50 (curve of first compound, second compound 3.16 µM): > 10 µM | IC50 (curve of first compound, second compound 10 µM): > 10 µM
SMILES: CC(Nc1ccc2c(c1)OCCn1cc(N3C(=O)OCC3C(F)F)nc1-2)C(N)=O (stereo not drawn) + C#Cc1c(F)ccc2cc(O)cc(-c3ncc4c(N5CC6CCC(C5)N6)nc(OCC56CCCN5CC(F)C6)nc4c3F)c12
viability, T/C (second compound 0.0316 µM, first compound 0.0316 µM): 108% | viability, T/C (second compound 0.0316 µM, first compound 0.1 µM): 106% | viability, T/C (second compound 0.0316 µM, first compound 0.316 µM): 100% | viability, T/C (second compound 0.0316 µM, first compound 1 µM): 95.5% | viability, T/C (second compound 0.0316 µM, first compound 3.16 µM): 107% | viability, T/C (second compound 0.0316 µM, first compound 10 µM): 86.8% | viability, T/C (second compound 0.1 µM, first compound 0.0316 µM): 104% | viability, T/C (second compound 0.1 µM, first compound 0.1 µM): 110% | viability, T/C (second compound 0.1 µM, first compound 0.316 µM): 101% | viability, T/C (second compound 0.1 µM, first compound 1 µM): 112% | viability, T/C (second compound 0.1 µM, first compound 3.16 µM): 111% | viability, T/C (second compound 0.1 µM, first compound 10 µM): 86.9% | viability, T/C (second compound 0.316 µM, first compound 0.0316 µM): 110% | viability, T/C (second compound 0.316 µM, first compound 0.1 µM): 102% | viability, T/C (second compound 0.316 µM, first compound 0.316 µM): 91.6% | viability, T/C (second compound 0.316 µM, first compound 1 µM): 95.3% | viability, T/C (second compound 0.316 µM, first compound 3.16 µM): 94.8% | viability, T/C (second compound 0.316 µM, first compound 10 µM): 77.3% | viability, T/C (second compound 1 µM, first compound 0.0316 µM): 109% | viability, T/C (second compound 1 µM, first compound 0.1 µM): 109% | viability, T/C (second compound 1 µM, first compound 0.316 µM): 121% | viability, T/C (second compound 1 µM, first compound 1 µM): 113% | viability, T/C (second compound 1 µM, first compound 3.16 µM): 115% | viability, T/C (second compound 1 µM, first compound 10 µM): 81.2% | viability, T/C (second compound 3.16 µM, first compound 0.0316 µM): 104% | viability, T/C (second compound 3.16 µM, first compound 0.1 µM): 95% | viability, T/C (second compound 3.16 µM, first compound 0.316 µM): 115% | viability, T/C (second compound 3.16 µM, first compound 1 µM): 91.6% | viability, T/C (second compound 3.16 µM, first compound 3.16 µM): 97% | viability, T/C (second compound 3.16 µM, first compound 10 µM): 83.1% | viability, T/C (second compound 10 µM, first compound 0.0316 µM): 98.9% | viability, T/C (second compound 10 µM, first compound 0.1 µM): 113% | viability, T/C (second compound 10 µM, first compound 0.316 µM): 119% | viability, T/C (second compound 10 µM, first compound 1 µM): 104% | viability, T/C (second compound 10 µM, first compound 3.16 µM): 95.9% | viability, T/C (second compound 10 µM, first compound 10 µM): 90.7%

IC50 [1]: 1.5 µM | IC50 [2]: 1.42 µM | IC50 [3]: 1.48 µM | IC50 [4]: 1.07 µM | IC50 [5]: 0.764 µM | IC50 [6]: 0.595 µM
SMILES: CCC(CC)c1cc(NC2CCC(N)C2)n2nccc2n1 (stereo not drawn) + CCn1c(-c2cccnc2C(C)OC)c2c3cc(ccc31)N1CCOC(CC(NC(=O)C(C(C)C)N(C)C(=O)C3(F)CCN(C(=O)C#CC(C)(C)N(C)C)CC3)C(=O)N3CCCC(N3)C(=O)OCC(C)(C)C2)C1
viability, T/C [7]: 113% | viability, T/C [8]: 87% | viability, T/C [9]: 115% | viability, T/C [10]: 76.3% | viability, T/C [11]: 1.1% | viability, T/C [12]: 1.22% | viability, T/C [13]: 99.7% | viability, T/C [14]: 82.4% | viability, T/C [15]: 66.7% | viability, T/C [16]: 71.3% | viability, T/C [17]: 1.2% | viability, T/C [18]: 0.93% | viability, T/C [19]: 82.1% | viability, T/C [20]: 122% | viability, T/C [21]: 96.5% | viability, T/C [22]: 75.1% | viability, T/C [23]: 1.25% | viability, T/C [24]: 1.32% | viability, T/C [25]: 66.9% | viability, T/C [26]: 72.1% | viability, T/C [27]: 123% | viability, T/C [28]: 52.9% | viability, T/C [29]: 1.48% | viability, T/C [30]: 1.83% | viability, T/C [31]: 64% | viability, T/C [32]: 106% | viability, T/C [33]: 132% | viability, T/C [34]: 34.6% | viability, T/C [35]: 0.98% | viability, T/C [36]: 0.98% | viability, T/C [37]: 93.5% | viability, T/C [38]: 94.5% | viability, T/C [39]: 98.5% | viability, T/C [40]: 12.7% | viability, T/C [41]: 1.23% | viability, T/C [42]: 1.13%

IC50 [1]: 0.126 µM | IC50 [2]: 0.155 µM | IC50 [3]: 0.155 µM | IC50 [4]: 0.0817 µM | IC50 [5]: 0.106 µM | IC50 [6]: 0.107 µM
SMILES: CC1(O)CCCC1n1c(=O)c(C(F)F)cc2cnc(NC3CCN(S(C)(=O)=O)CC3)nc21 (stereo not drawn) + CCn1c(-c2cccnc2C(C)OC)c2c3cc(ccc31)N1CCOC(CC(NC(=O)C(C(C)C)N(C)C(=O)C3(F)CCN(C(=O)C#CC(C)(C)N(C)C)CC3)C(=O)N3CCCC(N3)C(=O)OCC(C)(C)C2)C1
viability, T/C [7]: 102% | viability, T/C [8]: 57.9% | viability, T/C [9]: 21.9% | viability, T/C [10]: 24.9% | viability, T/C [11]: 20.7% | viability, T/C [12]: 3.78% | viability, T/C [13]: 115% | viability, T/C [14]: 67.3% | viability, T/C [15]: 21.2% | viability, T/C [16]: 22.8% | viability, T/C [17]: 23.8% | viability, T/C [18]: 4.11% | viability, T/C [19]: 83.1% | viability, T/C [20]: 68.5% | viability, T/C [21]: 19.7% | viability, T/C [22]: 18.9% | viability, T/C [23]: 23.4% | viability, T/C [24]: 2.04% | viability, T/C [25]: 91.6% | viability, T/C [26]: 41.3% | viability, T/C [27]: 18.8% | viability, T/C [28]: 21.4% | viability, T/C [29]: 24.4% | viability, T/C [30]: 1.8% | viability, T/C [31]: 99.3% | viability, T/C [32]: 51.8% | viability, T/C [33]: 16.9% | viability, T/C [34]: 21.4% | viability, T/C [35]: 26% | viability, T/C [36]: 1.18% | viability, T/C [37]: 64.1% | viability, T/C [38]: 52.2% | viability, T/C [39]: 16% | viability, T/C [40]: 23.2% | viability, T/C [41]: 24.1% | viability, T/C [42]: 1.49%

IC50 (curve of compound): 7.29 nM [middle of 4 runs]
SMILES: Nc1ccn(C2OC(CO)C(O)C2(F)F)c(=O)n1 (stereo not drawn)
viability, T/C (compound 0.00316 µM): 100% and 92.9% and 103% (2×) | viability, T/C (compound 0.01 µM): 30.1% [middle of 4 runs] | viability, T/C (compound 0.0316 µM): 1.12% and 1.45% (2×) and 1.74% | viability, T/C (compound 0.1 µM): 1.25% [middle of 4 runs] | viability, T/C (compound 0.316 µM): 0.85% and 1.16% and 1.48% | viability, T/C (compound 1 µM): 1.33% [middle of 4 runs]
